Results: US7732484B2, “Use of selective adenosine A1 receptor allosteric enhancers to manipulate angiogenesis” (University of Virginia Patent Foundation, priority 2000, dated 2010)

Tests used:
[1] = test system: chicken chorioallantoic membrane (CAM); assay: Windowed CAM assay, Elvax pellet, vascular density index; assay type: in vivo; conditions: Elvax pellet with 3 mg adenosine, in place for seven days, 12-15 eggs per group, FIG. 5
Experimental: Fertile White Leghorn chicken eggs were obtained from Truslow Farms (Chesterfield, Mo.). Eggs were incubated at 37° for 7 days, then a 1.5 cm window was cut into each egg over the CAM. Pellets were applied to the CAMs and the windows closed with cellophane tape. Eggs were incubated until day 14 when the CAMs were fixed. […] The pellets were placed on the CAM where there were a few vessels present and were left in place for seven days. The CAMs then were fixed in 10% buffered formalin and vessels were counted under 20× magnification using a Nikon stereomicroscope. The quantitation of vascular number is presented as vascular density index VDI that was an adaptation of a method described by Harris-Hooker (Harris-Hooker et al., Neovascular Responses Induced by Cultured Aortic Endothelial Cells, J. Cell. Phys., 114, 302-310, 1983). A plastic cover slip inscribed with 4, 5, 6, and 8 mm diameter concentric circles was centered over the adenosine pellet on the formalin-fixed CAM. The vascular density was judged by counting the numbers of the vessels which intersected the circles. This technique allowed counting of vessels down to 10-12 u in diameter. The positioning of the pellets on the CAM was randomized. […] Adenosine was delivered by other means as well.

[2] = test system: chicken chorioallantoic membrane (CAM); assay: CAM assay, drug applied daily on filter paper disc, vessels counted; assay type: in vivo; conditions: for angiogenic response in the CAM (vessel density at edge of disk): 100 μl daily for 7 days on filter paper disk
Experimental: Adenosine receptor subtype selective agonists stimulate angiogenesis to varying degrees in the CAM. […] In these studies, sterile filter paper disks were used to apply drug or vehicle to the CAM of eggs windowed after 7 days of incubation. The circular disk was 7 mm diameter. The agonist and antagonist drugs were delivered daily for 7 days in a volume of 100 μl placed onto the disks. On day 14 the CAMs were formalin fixed. The vessel density was determined by counting the vessels that intersected with the edge of the disks. Each bar represents data from between 13 and 19 eggs, with the exception of the bar for xanthine amine congener (XAC) which represents only four eggs. […] It is possible that some adenosine receptors may stimulate angiogenesis, while others, particularly the A2A receptor, may inhibit it. […] The 100 nM doses used should have allowed some preservation of subtype selectivity for the ligands.
Fertile White Leghorn chicken eggs are obtained from Truslow Labs (Maryland) and incubated until day 7 post-fertilization at 37° C. The eggs were automatically rotated by the incubator. On day 7 the eggs were candled to check for viability. The eggshell surface was cleaned with betadine and 70% isopropanol. A window 1.5×1.5 cm was cut into each egg over the CAM. The window was covered with clear cellophane tape and the eggs incubated at 37° C. overnight. The following day a sterile filter paper disc was applied to the CAM for the daily delivery of drugs or vehicle in a volume of 100 μl. CAMs were fixed on day 14 and vessels counted using the aforementioned method of Harris-Hooker et al.
CPA at 100 nM with or without 1 μM WRC-0571 was applied to filter paper discs on developing CAMs as described above.
Here, PD enhances the effects of endogenous adenosine on the chicken A1 receptor in the CAM. PD at a concentration of 100 μM, or vehicle, was delivered to the CAM on a filter paper disc using a protocol identical to that used for adenosine agonists. […] A small effect such as this in the absence of applied ligand or ischemia/hypoxia (which would increase the endogenous adenosine levels) is expected. Because it is a rapidly growing tissue, the CAM probably has higher levels of adenosine than more quiescent tissues, resulting in a measurable effect.

[3] = test system: chicken chorioallantoic membrane (CAM); assay: as above; assay type: in vivo; conditions: 20 nM CPA alone, FIG. 10
[4] = target: T1, human A3 over the A1 receptor (Homo sapiens, UniProt P0DMS8); conditions: cited from earlier work
T1 sequence (P0DMS8 1-318): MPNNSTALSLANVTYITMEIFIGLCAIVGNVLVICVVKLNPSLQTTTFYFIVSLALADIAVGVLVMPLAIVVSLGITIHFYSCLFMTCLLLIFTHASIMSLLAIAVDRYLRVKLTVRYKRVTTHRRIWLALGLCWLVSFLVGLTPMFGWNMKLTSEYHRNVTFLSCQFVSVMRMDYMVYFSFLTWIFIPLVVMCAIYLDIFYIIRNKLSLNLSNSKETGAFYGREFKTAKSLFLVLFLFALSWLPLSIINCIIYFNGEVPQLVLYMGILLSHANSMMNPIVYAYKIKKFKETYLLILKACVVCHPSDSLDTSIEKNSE

rat mesentery = assay: Rat mesentery angiogenesis, intraperitoneal Alzet osmotic pump infusion; assay type: in vivo; conditions: chronic infusion by Alzet pump into the peritoneal cavity, one week, FIG. 11
Experimental: Drug application into rat mesentery using infusion pumps. Alzet osmotic pumps were filled with drug or vehicle to a volume of 200 μl . The abdominal cavities of anesthetized 150 g Sprague-Dawley rats were incised and pumps implanted into the intraperitoneal cavity. The pumps delivered the drug at 1.0 μl/hr. After one week mesenteric samples were taken between vascular arcades along the length of the small bowel. Specimens were fixed and stained using a BS:lectin stain.
The control mesentery is shown on the left, PD 81,723—treated on the right. The chronic infusion was an advantage because the model is not an ischemic one, so steady long term administration of the PD 81,723 may help to augment the effects of lower concentrations of endogenous adenosine.

SMILES: Nc1ncnc2c1ncn2[C@@H]1O[C@H](CO)[C@@H](O)[C@H]1O [Adenosine, adenosine]
- angiogenesis in the CAM model (vascular density index) [1]: stimulated angiogenesis

SMILES: CCNC(=O)[C@H]1O[C@@H](n2cnc3c(N)nc(NCCc4ccc(CCC(=O)O)cc4)nc32)[C@H](O)[C@@H]1O [CGS21680]
- angiogenic response in the CAM (vessel density at edge of disk) ([2]; 100 nM doses, FIG. 6): No angiogenic response

SMILES: OC[C@H]1O[C@@H](n2cnc3c(NC4CCCC4)ncnc32)[C@H](O)[C@@H]1O [CPA, Cyclopentyladenosine]
- angiogenic response in the CAM (vessel density at edge of disk) ([2]; 100 nM doses, FIG. 6): positive angiogenic response
- stimulation of angiogenesis in the CAM [3]: did not stimulate angiogenesis

SMILES: CCOC(=O)C1=C(C)NC(c2ccccc2)=C(C(=O)OCc2ccccc2)C1C#Cc1ccccc1 (centres unmarked) [MRS 1191]
- selectivity for the human A3 over the A1 receptor [4]: > 1300 fold

SMILES: CCNC(=O)[C@H]1O[C@@H](n2cnc3c(N)ncnc32)[C@H](O)[C@@H]1O [NECA]
- angiogenic response in the CAM (vessel density at edge of disk) ([2]; 100 nM doses, FIG. 6): positive angiogenic response

SMILES: Cc1sc(N)c(C(=O)c2cccc(C(F)(F)F)c2)c1C [PD 81,723]
- stimulation of angiogenesis in the CAM ([2]; 100 μM on filter paper disc versus vehicle, FIG. 8): 10%
- stimulation of angiogenesis in rat mesentery (rat mesentery): Stimulation of angiogenesis

SMILES: CC(C)N(C)c1nc2c(N[C@@H]3CC4CC3CC4O)ncnc2n1C (some centres unmarked) [WRC-0571]
- block of the angiogenic effect of CPA in the CAM ([2]; 1 μM WRC-0571 with 100 nM CPA, FIG. 7): completely blocked
- block of the effects of endogenous adenosine on angiogenesis in the CAM ([2]; FIG. 8): blocked the effects of endogenous adenosine
- block of C17-stimulated angiogenesis in the CAM ([2]; FIG. 9): blocked
- block of the effects of PD 81,723 in the CAM ([2]; with PD at 100 μM, FIG. 8): completely blocked

SMILES: CCCn1c(=O)c2[nH]c(-c3ccc(OCC(=O)NCCN)cc3)nc2n(CCC)c1=O [XAC, xanthine amine congener]
- inhibition of baseline angiogenesis in the CAM ([2]; 100 nM doses, daily for 7 days on filter paper disk, four eggs, FIG. 6): did not inhibit baseline angiogenesis

SMILES: CNC(=O)[C@H]1O[C@@H](n2cnc3c(NCc4cccc(I)c4)ncnc32)[C@H](O)[C@@H]1O [m-MECA, N^6-iodobenzyl-5′-N-methyl-carboxamidoadenosine]
- angiogenic response in the CAM (vessel density at edge of disk) ([2]; 100 nM doses, FIG. 6): positive angiogenic response
